# Results taken from patent publication US20040024005A1, “Methods and compositions for reducing the development of drug tolerance and/or physical dependence” (The Regents of the University of California, priority 2002, published 2004).
# Experiments:
# MOR-G protein coupling = target: T1, MOR-G protein coupling (Rattus norvegicus, UniProt P33535); assay: [35S]-GTPγS binding autoradiography of brain sections (MOR-G protein coupling) after chronic treatment; type: in vivo; conditions: chronic DAMGO treatment as printed; brainstem P<0.001, thalamus P<0.05
# T1 construct: from tissue; host or cells: brain sections of male Sprague-Dawley rats treated i.c.v
# Method: The binding assay was carried out as follows:
# Slides containing brain sections were pre-incubated in buffer (50 mM Tris, 3 mM MgCl2, 0.2 mM EGTA, 100 mM NaCl, pH 7.4) for 10 min at room temperature.
# The slides were then pre-incubated in the same buffer containing 2 mM GDP for 10 min at room temperature.
# The slides were incubated in the same buffer as in step 2, additionally containing 50 pM [^35S]GTPγS for 90 min at room temperature.
# The slides were then rinsed twice for 2-5 min in ice-cold buffer (the same buffer as in step 1) and dipped in cold distilled water.
# The slides were thoroughly dried overnight, placed in X-ray cassettes, and exposed to BioMax MS™ film with an intensifying screen for 72 hr.
# After exposure, the films were developed and scanned. The regional neuroanatomy of the rat was determined with the atlas of Paxinos and Watson, and brain areas in autoradiograms were quantitated using NIH Image software. Percent stimulation was calculated from optical densities (OD) according to the following equation:
# Percent stimulation=(stimulated OD−basal OD)/basal OD×100%.
# [1] = target: T2, MORs in the lamina II neurons of the spinal cord (Rattus norvegicus, UniProt P33535); assay: Immunohistochemical staining of MORs in lamina II spinal cord neurons after IT drug; type: in vivo
# T2 construct: from tissue; host or cells: spinal cord (lamina II, dorsal horn) of male Sprague-Dawley rats dosed intrathecally
# Method: Immunohistochemistry. The rats were anesthetized with intramuscular ketamine hydrochloride (80 mg/kg) and xylazine hydrochloride (12 mg/kg) and perfused with 4% paraformaldehyde in 0.1 M phosphate buffer immediately following the tail-flick test at day 7 following pump implantation. The segment of spinal cord proximal to the tip of the catheter was dissected out, post-fixed overnight in the same fixative and then transferred to a 30% sucrose buffer solution. […] The sections were then washed and mounted on slides. MOR distribution was examined with a Zeiss confocal microscope using a 60× oil immersion objective. For quantification, slides from at least two different rats for each condition were stained by one researcher and encoded and vesicles were counted blind by a second individual from the middle section of at least 8 cells per condition. Following compilation of vesicle counts, the code was broken.
# (§1) Rats (4-6 per group) were implanted with an intrathecal catheter through which either an acute injection of agonist could be given or chronic drug could be administered by an osmotic mini pump.
# A very low dose of DAMGO was chosen to avoid confusion due to DAMGO-induced endocytosis.
# To examine this possibility, we examined the distribution of the MORs in the spinal cord of the rats from the behavioral experiment.
# [2] = Naloxone-precipitated withdrawal after i.c.v. treatment (jumping, shaking, chewing, weight loss); conditions: naloxone 3 mg/kg i.p.; for withdrawal symptoms after naloxone (jumping, shaking, chewing, weight loss): i.c.v. twice daily for 5 days, morphine 50 nmoles, DAMGO 1.0 nmole; for withdrawal behaviours after naloxone: 20-min period
# Method: (§2) On day 7, rats were injected intraperitoneally with 3 mg/kg naloxone and placed, individually, in Plexiglass cylinders. The rats were monitored for jumping, shaking, and chewing, and the number of occurrences of each type of behavior over a 20-min period was recorded immediately following the naloxone injection. In addition, the rats were weighed before naloxone injection and after the 20 mins of monitoring indicated above.
# as §2, with “5, 30 mins following the second drug administration,” for “7,”, “following” for “after”, “20-min observation period” for “20 mins of monitoring”
# [3] = target: T3, HA-B2AR (beta-2 adrenergic receptor) (Homo sapiens, UniProt P07550); assay: B2AR endocytosis in HEK 293 cells expressing FLAG-MOR and HA-B2AR; type: cell-based; conditions: 5 μM each agonist, 30 minutes
# T3 construct: expressed in transfected cells
# Method: Cell culture and immunocytochemistry. Human Embryonic Kidney (HEK) 293 cells (American Type Culture Collection) were grown in DMEM (Gibco BRL) supplemented with 10% Fetal Bovine Serum (Hyclone). Mu opioid receptor and CRE-Luciferase (Promega) constructs were stably transfected using calcium phosphate co-precipitation, with single colonies chosen and propagated in the presence of selection-containing media. For immunocytochemistry, cells were grown on poly-lysine coated coverslips and incubated with 3.5 μg/ml M1 anti-FLAG and/or 3.5 μg/ml HA-11 antibody (Covance) for 30 minutes. Cells were then treated with agonist as specified, fixed in 4% formaldehyde in PBS, permeabilized in 0.1% Triton X-100 in blotto, and stained. Cells stained for only one receptor type were stained with Texas red-conjugated Donkey anti-Mouse antibody (Jackson Immunoresearch). Cells that were stained for both FLAG and HA tagged receptors simultaneously were first incubated with rabbit anti-IgG2b antibodies (Zymed) followed by staining with Texas red Donkey anti Mouse antibody (Jackson Immunoresearch) and FITC-conjugated Goat anti Mouse IgG1, antibody (Boehringer). Images were acquired using a custom-configured inverted microscope (Prairie Systems, Madison, Wis.) with a Zeiss 63× oil objective, or a Zeiss confocal with a 60× oil objective. […]
# [4] = Tail-flick antinociception and tolerance, intracerebroventricular (i.c.v.) cannula; type: in vivo, rat
# From the text: Intracerebroventricular (i.c.v.) cannula implantation. Rats were anesthetized with halothane and placed in a stereotaxic head holder. The scalp was shaved and scrubbed with alcohol. A midline sagittal incision was made, and the skull was exposed. The bone suture junctions Bregma and midline (lambda) were identified, then the location for cannula placement was marked 1 mm posterior to Bregma and 1.5 mm lateral (left) of the midline. A hole was drilled through the skull at the marked location to receive the cannula. Then, three additional holes were drilled around the first hole: anterior, lateral and posterior to the first hole, respectively, and about 3-4 mm apart from the first hole. These three holes were drilled partway through the skull to accommodate three small screws used to secure the cannula. An L-shaped cannula was inserted through the first hole in the skull to the stereotaxically correct depth 3.6 mm below the surface of the skull. The skull surface was completely dried, and the cannula and the implantation site covered with dental cement. Once the surgical procedures were done, the rat was removed from the stereotaxic device and returned to its cage and allowed 5 to 7 days to recover from surgery.
# Implantation of osmotic mini-pump. After 5 to 7 days of recovery, a subcutaneous pocket in the midscapular area of the back of each rat, next to the implanted cannula (caudally), was created under light anesthesia with halothane to house the osmotic mini-pump. The subcutaneous pocket was created by first making a small incision, inserting a hemostat into the incision, and then opening and closing the hemostat to make a short subcutaneous tunnel. […] The wound was closed with sutures and the rat was returned to its cage.
# Rats were tested for analgesia using the tail-flick latency test twice during the study period. The tests were conducted 30 min after the morning dose on days 1 and 5. Maximum Possible Effect (MPE) was calculated using the following equation: (Post-drug latency—baseline latency)/(cut-off latency—baseline latency)×100%.
# mu-opioid receptor = target: T4, mu-opioid receptor (Rattus norvegicus, UniProt P33535); assay: MOR distribution in brain by immunohistochemistry after acute and chronic i.c.v. treatment; type: in vivo; conditions: i.c.v. acute or chronic (twice a day, 5 days); morphine 50 nmoles, DAMGO 1 nmole
# T4 construct: from tissue; host or cells: brain sections of male Sprague-Dawley rats treated i.c.v
# Method: For the acute treatment, animals were sacrificed 30 mins following the first injection. For the chronic treatment, drugs were given twice a day: morning and afternoon, in 5 μl volume for 5 days, and the animals were sacrificed 30 mins following the final injection. Rats were deeply anesthetized with halothane and perfused with 4% paraformaldehyde in 0.1 M phosphate buffer. The brains were dissected out and post-fixed overnight in the same fixative and then transferred to a 30% sucrose buffer. Coronal sections (30 um thick) were cut on cryostat at −18° C., preincubated in PBT solution (0.1 M phosphate buffer, 2% BSA, and 0.2% Triton X-100) for 30 min, blocked in 5% normal goat serum in PBT solution for another 30 min, and then incubated with a rabbit anti-mu opioid receptor antibody at 1:5000 and mouse and NeuN antibody (which recognizes the neuronal-specific protein NeuN) at 1:5000 overnight at 4° C. […] The sections were then washed and mounted onto slides. The mu-opioid receptors and NeuN were visualized using a Zeiss confocal microscope with a 60× oil immersion objective.
# wild type MOR = wild type MOR (Homo sapiens, UniProt P35372); conditions: cited from earlier work
# [5] = target: T5, FLAG-MOR (mu opioid receptor) (Mus musculus, UniProt P42866); assay: MOR endocytosis by antibody feeding and immunocytochemistry in HEK 293 cells; type: cell-based
# T5 construct: expressed in transfected cells
# Method: Cell culture and immunocytochemistry. Human Embryonic Kidney (HEK) 293 cells (American Type Culture Collection) were grown in DMEM (Gibco BRL) supplemented with 10% Fetal Bovine Serum (Hyclone). Mu opioid receptor and CRE-Luciferase (Promega) constructs were stably transfected using calcium phosphate co-precipitation, with single colonies chosen and propagated in the presence of selection-containing media. For immunocytochemistry, cells were grown on poly-lysine coated coverslips and incubated with 3.5 μg/ml M1 anti-FLAG and/or 3.5 μg/ml HA-11 antibody (Covance) for 30 minutes. Cells were then treated with agonist as specified, fixed in 4% formaldehyde in PBS, permeabilized in 0.1% Triton X-100 in blotto, and stained. Cells stained for only one receptor type were stained with Texas red-conjugated Donkey anti-Mouse antibody (Jackson Immunoresearch). Cells that were stained for both FLAG and HA tagged receptors simultaneously were first incubated with rabbit anti-IgG2b antibodies (Zymed) followed by staining with Texas red Donkey anti Mouse antibody (Jackson Immunoresearch) and FITC-conjugated Goat anti Mouse IgG1, antibody (Boehringer). Images were acquired using a custom-configured inverted microscope (Prairie Systems, Madison, Wis.) with a Zeiss 63× oil objective, or a Zeiss confocal with a 60× oil objective.
# We next assessed whether the heterodimerization of MOR and D MOR could affect the trafficking of the receptors using immunocytochemical methods. […] Control cell lines that expressed only one of the receptors, either FLAG-MOR or HA-D MOR, were treated analogously. All cells were then permeabilized and stained with fluorescently conjugated secondary antibodies. In this way, only receptors that were initially on the cell surface were detected.
# HEK 293 cells were generated that stably expressed both the FLAG-tagged MOR and an HA-tagged B2AR. The cells were incubated with antibodies to both epitope tags to label cell surface receptors, treated with various agonists or agonists combinations, then stained for both receptors. […] All treatments were for 30 minutes with 5 μM each agonist.
# cAMP pathway = assay: CRE-luciferase reporter assay of cAMP superactivation in MOR-expressing HEK293 cells; conditions: chronic 14 hours
# Method: CRE-luciferase reporter expression assays. Cells were grown to confluency in 24 well plates. […] For chronic treatment experiments cells were given drug for 14 hours, rinsed 3 times in drug-free media to initiate a withdrawal phase, then given 2 μM forskolin for the 4 hour withdrawal phase, and luciferase activity measured. […] For all treatment conditions, cells were rinsed once in PBS immediately prior to luciferase measurement. 100 μl Cell Culture Lysis Reagent (Promega) was added to each well, a 20 μl cell lysate aliquot was transferred to an opaque 96 well plate, 100 μl substrate added per well using a Lucy 2 luminometer (Anthos), and light measurements collected. Data were exported to Microsoft Excel for compilation, and GraphPad Prism 3.0 for graphical display, non-linear regression curve fitting, and subsequent statistical analyses.
# P<0.01, two-way ANOVA, Tukey's post test.
# [6] = Radiant heat tail-flick antinociception, intrathecal (IT) catheter; type: in vivo, rat
# From the text: Animals. Male Sprague-Dawley rats (250-300 g, Simonsen Laboratories, Inc. Gilroy, Calif.) were housed individually in temperature-controlled rooms with a 12-hr light/dark cycle. Food and water were available ad libitum. All procedures used in this study were in agreement with the NIH Guide for the Care and Use of Laboratory Animals and were approved by the Animal Care and Use Committee at Gallo Center of the University of California, San Francisco.
# Preparation and implantation of intrathecal (IT) catheters. […] Two types of catheters were prepared depending on the regimen for test drug delivery. […] For catheter implantation, rats were anesthetized with isoflurane and placed on a stereotaxic device with the head flexed forward. The PE-10 catheter was inserted into the spinal subarachnoid space through an incision in the atlanto-occipital membrane and advanced caudally extending to the lumbar enlargement of the spinal cord. After implantation of IT catheters, rats were returned to their home cages and allowed 7 days to recover from surgery.
# Drug treatments. […] The test drug was delivered via either single injection or chronic infusion. […] DAMGO or saline was injected through one arm of the Y-shape catheter at 15 μl volume.
# Antinociception test. Rats were tested for antinociception using the radiant heat tail-flick procedure. The light intensity was adjusted to achieve base-line latencies of 1.5 to 2 seconds; a maximum latency of 6 seconds was set as the cut-off time to minimize damage to the tail. […] Antinociception was tested by tail-flick 30 min after the afternoon administration. The behavioral data of antinociception were compared and statistically analyzed by two-way analysis of variance followed by Bonferroni post-test, where P<0.05 was considered significant.
# as §1
# Rats were implanted with a Y-shaped intrathecal catheter. […] Either a sub-analgesic, sub-endocytic dose of DAMGO (0.01 nmoles in 15 μl) or an equal volume of saline was administered twice daily through the other arm of the catheter. […] Analgesia was measured by tail flick latency test once per day 30 minutes following the second injection.
# [7] = HEK 293 cells expressing FLAG-MOR and HA-B2AR, 5 μM each agonist, 30 minutes
# [8] = acute IT injection, 30 min after, DAMGO 0.3 nmoles, morphine 30 nmoles, p<0.001
# [9] = chronic i.c.v. infusion at 25 or 75 nmoles/hr for 7 days
# T5 sequence (P42866 whole entry): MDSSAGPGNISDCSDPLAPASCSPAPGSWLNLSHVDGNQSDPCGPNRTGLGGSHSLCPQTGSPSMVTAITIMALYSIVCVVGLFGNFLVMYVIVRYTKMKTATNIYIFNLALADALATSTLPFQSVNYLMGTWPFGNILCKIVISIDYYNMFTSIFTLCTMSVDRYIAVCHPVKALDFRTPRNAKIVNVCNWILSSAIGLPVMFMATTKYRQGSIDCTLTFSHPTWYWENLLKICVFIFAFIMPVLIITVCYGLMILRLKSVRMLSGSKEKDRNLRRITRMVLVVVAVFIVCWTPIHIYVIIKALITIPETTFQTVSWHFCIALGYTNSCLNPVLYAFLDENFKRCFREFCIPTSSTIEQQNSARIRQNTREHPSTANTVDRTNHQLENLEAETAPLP
# T2 sequence (P33535 whole entry): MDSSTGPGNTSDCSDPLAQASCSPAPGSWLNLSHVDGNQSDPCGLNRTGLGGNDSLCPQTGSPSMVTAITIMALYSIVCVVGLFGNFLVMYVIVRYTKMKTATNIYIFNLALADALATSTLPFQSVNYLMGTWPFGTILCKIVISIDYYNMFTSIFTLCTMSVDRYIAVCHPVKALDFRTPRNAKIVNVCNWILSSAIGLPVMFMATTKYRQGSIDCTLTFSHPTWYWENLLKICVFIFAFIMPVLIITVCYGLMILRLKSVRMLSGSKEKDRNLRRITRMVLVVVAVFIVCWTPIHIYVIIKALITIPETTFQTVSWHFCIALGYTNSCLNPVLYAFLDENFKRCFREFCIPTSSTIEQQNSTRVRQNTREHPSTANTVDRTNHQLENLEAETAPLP
# T3 sequence (P07550 whole entry, species assumed): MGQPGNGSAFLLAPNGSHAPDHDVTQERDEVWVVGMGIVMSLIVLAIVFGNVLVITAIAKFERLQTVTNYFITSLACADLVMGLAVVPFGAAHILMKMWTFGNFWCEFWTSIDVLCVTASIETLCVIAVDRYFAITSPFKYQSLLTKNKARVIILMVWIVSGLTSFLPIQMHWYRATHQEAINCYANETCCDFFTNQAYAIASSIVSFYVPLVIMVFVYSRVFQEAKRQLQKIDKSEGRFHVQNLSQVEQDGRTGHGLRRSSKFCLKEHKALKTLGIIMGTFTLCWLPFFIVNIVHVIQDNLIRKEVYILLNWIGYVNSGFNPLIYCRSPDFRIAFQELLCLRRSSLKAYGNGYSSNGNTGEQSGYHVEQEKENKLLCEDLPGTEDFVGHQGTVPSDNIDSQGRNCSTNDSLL
# T1 sequence (P33535 whole entry): as the sequence (P33535 whole entry) above
# T4 sequence (P33535 whole entry): as above
# wild type MOR, sequence (P35372 whole entry): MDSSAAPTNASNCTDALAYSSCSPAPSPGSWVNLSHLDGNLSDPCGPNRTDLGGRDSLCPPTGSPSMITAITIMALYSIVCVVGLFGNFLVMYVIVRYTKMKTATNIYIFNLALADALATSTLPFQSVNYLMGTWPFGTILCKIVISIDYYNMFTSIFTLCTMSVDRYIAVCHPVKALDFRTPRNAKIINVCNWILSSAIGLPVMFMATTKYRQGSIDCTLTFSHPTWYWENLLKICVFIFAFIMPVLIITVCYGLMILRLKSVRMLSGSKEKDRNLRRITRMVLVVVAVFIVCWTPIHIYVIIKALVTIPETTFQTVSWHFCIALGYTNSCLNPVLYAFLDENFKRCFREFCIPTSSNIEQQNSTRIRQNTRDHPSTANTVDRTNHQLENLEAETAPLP
smiles,measurement,setting,value
C[C@@H](NC(=O)[C@@H](N)Cc1ccc(O)cc1)C(=O)NCC(=O)N(C)[C@@H](Cc1ccccc1)C(=O)NCCO [DAMGO],MOR-G protein coupling in the brainstem and thalamus,MOR-G protein coupling,reduction MOR-G protein coupling
same,MOR endocytosis in lamina II neurons,"[1]; acute IT, 0.01 nmoles alone",nor detectable MOR endocytosis
same,MOR distribution / endocytosis in lamina II neurons,"[1]; acute IT, DAMGO 0.3 nmoles, equi-analgesic morphine 30 nmoles",pronounced receptor endocytosis
same,distribution of MORs in spinal cord neurons,"[1]; day 7 of chronic IT treatment, morphine mini pump and/or DAMGO 0.01 nmoles twice daily",indistinguishable from animals given only saline
same,"withdrawal symptoms after naloxone (jumping, shaking, chewing, weight loss)",[2],"no jumping and less shaking, chewing, and weight loss"
same,B2AR endocytosis,[3],not B2AR
same,reduction in antinociception (percent MPE) after 5-day treatment,"[4]; i.c.v. 1 nmole twice a day for 5 days, day 5 vs day 1",much smaller reduction in antinociception
same,"promotes substantial MOR endocytosis in brain (striatum, globus pallidus, ventral tegumental area)",mu-opioid receptor,does
same,MOR endocytosis,wild type MOR,promotes robust endocytosis of the MOR
same,MOR endocytosis,[5]; [7],promoted endocytosis of the MOR
same,MOR endocytosis,"[5]; HEK 293 cells expressing only MOR, 5 μM, 30 minutes (saturating dose)",robust endocytosis of receptor
same,MOR endocytosis,"[5]; HEK 293 cells expressing only MOR, non-saturating DAMGO 100 nM alone",significantly less receptor endocytosis
same,superactivation of the cAMP pathway relative to untreated cells,cAMP pathway; 10 nM alone,little superactivation
same,superactivation of the cAMP pathway relative to untreated cells,"cAMP pathway; 1 μM, 100 nM, 10 nM or 1 nM",superactivation in a dose dependent manner
same,analgesia (tail flick latency),"[6]; 0.01 nmoles IT twice daily, saline from mini pump, 7 days",produced no analgesia
same,analgesia (tail flick latency),"[6]; acute IT injection, 30 min after, 0.01 nmoles, p>0.05",no analgesic effect
same,analgesia (tail flick latency),[6]; [8],produced significant analgesia
CC(C)NCC(O)c1ccc(O)c(O)c1 (stereo not drawn) [isoproterenol],MOR endocytosis,[5]; [7],not MOR
"CN1CC[C@]23c4c5ccc(O)c4O[C@H]2[C@@H](O)C=C[C@H]3[C@H]1C5 [morphine, (5α,6α)-7,8-didehydro-4,5-epoxy-17-methylmorphinan-3,6-diol]",withdrawal behaviours after naloxone,[2]; i.c.v. 25 nmoles/hr for 7 days,increases in shaking and chewing
same,withdrawal behaviours after naloxone,[2]; i.c.v. 75 nmoles/hr for 7 days,"increases in jumping, shaking, and chewing"
same,weight loss after naloxone,[2]; i.c.v. 25 or 75 nmoles/hr for 7 days,dose-dependent weight loss
same,"withdrawal symptoms after naloxone (jumping, shaking, chewing, weight loss)",[2],"produced jumping, shaking, and chewing and weight loss"
same,duration of significant antinociceptive effect,[4]; [9],3 to 4 days
same,tolerance,[4]; [9],causes tolerance in a dose-dependent manner
same,reduction in antinociceptive effect (percent MPE) after 5-day treatment,"[4]; i.c.v. 50 nmoles twice a day for 5 days, day 5 vs day 1",30-40%
same,time to development of tolerance,"[6]; Y-shaped IT catheter, chronic morphine mini pump plus twice daily saline injections",≤ 4 days
same,antinociception early in the experiment / day one,"[6]; Y-shaped IT catheter, chronic morphine mini pump plus twice daily saline or DAMGO 0.01 nmoles",pronounced antinociception early in the experiment
same,analgesia (tail flick latency),[6]; [8],produced significant analgesia
same,loss of antinociception (tolerance),"[6]; chronic IT infusion at 2, 6, or 18 nmoles/hr, 7 days",eventually lost completely over 7 days
same,antinociceptive effect (tail flick latency),"[6]; chronic IT infusion at 2, 6, or 18 nmoles/hr, early days",significant antinociceptive effect for the first few days
